This is an account of results in US9795649B2, “Sesquiterpenoid-based compounds, extracts of Cyperus rotundus comprising the same, and use thereof” (RESEARCH & BUSINESS FOUNDATION SUNGKYUNKWAN UNIVERSITY, priority 2013, dated 2017).

“Also recorded” adds a separate entry of the source.

Common to all, as to format: cell-based
The subject of one test is MCF-7-bus cells. Put plainly: E-screen assay for estrogenic activity. The following applies: isolated compounds; FIGS. 4A and 4B. The text has this:
E-screen assay is a method of measuring estrogenic action of a substance, i.e., a method of utilizing the growth effect of MCF-7-bus, a breast cancer cell line with endogenous estrogen receptors (ER) expressed therein, which is stimulated by an estrogenic substance. In the present invention, estrogenic activities of the methanol extract and the organic solvent fraction thereof, the ethanol extract and the column fraction thereof were examined by E-screen assay.
(§1) In detail, MCF-7-bus cells were cultured in a 5% FBS DMEM medium and seeded in a 48-well plate at a density of 5×10^3 cells/well. The cells were cultured in a CO2 incubator at 37° C. for 48 hours, and then washed with a phenol red-free medium twice. The test materials were diluted with 5% CD-FBS DMEM at different concentrations, and then cells were treated therewith. The concentration of the solvent was in principle adjusted to 0.1%. After culturing for 144 hours (6 days), cells were fixed to the plate with TCA (Trichloroacetic acid) solution. The cells thus fixed were stained with SRB (Sulforhodamin B) dye, and the SRB dye remaining in the plate was removed by washing with acetic acid. The bound SRB dye was eluted from the cells with tris-base solution, and absorbance at 490 nm was measured to calculate the amount of SRB dye. Finally, estrogenic actions of the test materials were confirmed.

The test system of test [1] is MCF-7 bus cells. Put plainly: E-screen assay with co-treatment of tamoxifen (estrogen receptor antagonist). Conditions: tamoxifen 10^−6M; FIGS. 5A and 5B. The procedure: as §1
In detail, Tamoxifen is a representative estrogen receptor antagonist, and in this experiment, in order to examine whether the test materials show the estrogen receptor-mediated estrogenic actions, the test materials were mixed with tamoxifen (10^−6M) and MCF-7 bus cells were treated with the mixture to perform e-screen assay, and the results are shown in FIG. 5.

Test [2] deals with MCF-7 bus cells. Briefly: E-screen assay with co-treatment of high or low concentration of estradiol (SERM function). Conditions: for change in estrogenic activity by co-treatment of high concentration of estrogen: estradiol 10^−7M, FIGS. 6A and 6B; for change in estrogenic activity by co-treatment of low concentration of estrogen: estradiol 10^−13M, FIGS. 7A and 7B. The procedure:
as §1
In detail, to examine whether the test materials function as an antagonist of estrogen at excessively high level of estrogen in the body, the test materials were mixed with high concentration of estradiol (10^−7M) and MCF-7 bus cells were treated with the mixture. To examine whether the test materials function as an agonist of estrogen at estrogen deficiency in the body, the test materials were mixed with a low concentration of estradiol (10^−13M) and MCF-7 bus cells were treated with the mixture. Then, e-screen assay was performed.

For a further test, the system named is RBL-2H3 cell line. Put plainly: β-Hexosaminidase release assay for anti-allergic activity. The following applies: Rattus norvegicus, 50 μg/ml, Mean ± SD, read-out: Degranulation-inhibitory activity (%, Mean ± SD). The procedure: β-Hexosaminidase release assay is an experiment for examining anti-allergic activity by activating the RBL-2H3 cell line with an activating factor, treating the activated cells with an antigen, and then measuring the amount of released β-hexosaminidase to examine inhibitory effect on degranulation, and this assay was performed as follows.
In detail, the RBL-2H3 cell line was cultured in minimum essential media (hereinafter, referred to as EMEM) containing Eagle's salt supplemented with 15% fetal bovine serum and L-glutamine at 37° C. in a 5% CO2 incubator. Adherent cells were suspended by Trypsin-EDTA, and separated, recovered for use in the experiment. The RBL-2H3 cell line was activated with an activating factor (Dinitrophenol-conjugated human serum albumin, (DNP-HSA)-specific IgE), and then the activated cells were treated with 200 ng/mL of an antigen (DNP-HSA), and 0, 6.25, 12.5, 25, 50, or 100 μg/mL of the fraction of the extract of Cyperus rotundus was treated, respectively. Cells were incubated for 30 minutes. As a positive control, 50 μg/mL of ketotifen was used. Thereafter, the amount of β-hexosaminidase released to the medium was measured using a microplate spectrophotometer. Inhibition of β-hexosaminidase release means prevention of degranulation of immune cells.

With `C=C(C)[C@@H]1CC[C@@]2(C)CCC(=O)[C@@]3(C)O[C@@]23C1` [Compound [1], 4α,5α-oxidoeudesm-11-en-3-one], the estrogenic activity result in the test with MCF-7-bus cells was “excellent estrogenic activity; also recorded: high estrogenic activity”. Moreover, the “estrogenic activity by co-treatment with tamoxifen” value in the test on MCF-7 bus cells [1] is given as “remarkably reduced activities”. Besides, in the test with MCF-7 bus cells [2], the “change in estrogenic activity by co-treatment of high concentration of estrogen” value (“change … of high concentration of estrogen” for short) is “function as an estrogen inhibitor” and the “change in estrogenic activity by co-treatment of low concentration of estrogen” value (“change … of low concentration of estrogen” for short) is recorded as “function as an estrogen supplement”.

Regarding `C=C(C)C1CCC2(C)CCC(OC)C(C)=C2C1` (stereo not drawn) [Compound [6], 3α-methoxyeudesma-4,11-diene], the estrogenic activity entry with MCF-7-bus cells is “high estrogenic activity”. In addition, the “estrogenic activity by co-treatment with tamoxifen” value in the test with MCF-7 bus cells [1] was “remarkably reduced activities”. In the test with MCF-7 bus cells [2], the “change … of high concentration of estrogen” value is on record as “function as an estrogen inhibitor” and the “change … of low concentration of estrogen” value is listed as “function as an estrogen supplement”. The inhibition at 50 µg/mL in the test with RBL-2H3 cell line came to 41.7 ± 5.4%.

With `CN1CCC(=C2c3ccccc3CC(=O)c3sccc32)CC1` [Ketotifen, ketotifen, reference compound], the inhibition at 50 µg/mL in the test with RBL-2H3 cell line stood at 50.5 ± 2.28%.

With cyper-11-ene-3,4-dione [Compound [2]], the estrogenic activity entry with MCF-7-bus cells is reported as “high estrogenic activity”. The “estrogenic activity by co-treatment with tamoxifen” value in the test on MCF-7 bus cells [1] was “remarkably reduced activities”. Moreover, in the test with MCF-7 bus cells [2], the “change … of high concentration of estrogen” value is given as “function as an estrogen inhibitor” and the “change … of low concentration of estrogen” value is “function as an estrogen supplement”.
